Patent US5221616A, “Prevention of spontaneous complement activation in mammalian biological fluids” (Quidel Corporation, priority 1988, dated 1993)

Legend:
Factor B = target: T1, Factor B (Homo sapiens, UniProt P00751); test: polyhydroxyl compounds in Buffer B mixed with EDTA-NHP: Bb fragment EIA; assay type: biochemical; settings: final concentration 2M, 22° C. for 48 hr
T1 construct: from tissue; host or cells: normal human EDTA plasma (EDTA-NHP)
Description: (§1) An extensive series of experiments were conducted to examine the ability of a large variety of polyhydroxyl compounds to prevent the spontaneous activation of C in EDTA-NHP during in vitro storage at 22° C for 48 hr. EDTA-NHP was mixed with an equal volume of Buffer B containing the polyhydroxyl compound to be tested. In these experiments Buffer B consisted of 40 mM EDTA and 30 IU sodium heparin/mL dissolved in deionized water, pH 7.2. The final concentration of polyhydroxyl compound dissolved in Buffer B varied for each compound due to differences in solubility. For each set of experiments, EDTA-NHP was also diluted and mixed with an equal volume of PBS (untreated control). […] This conclusion was based upon the iC3b percent protection values determined for each of the polyhydroxyl compounds (treated samples) as listed in FIG. 14.
The concentrations, expressed as μg analyte/mL, of a number of different activation products of spontaneous complement activation were measured in the course of these experiments. In an effort to normalize the data obtained from the various determinations so that the results from different assays could be directly compared to one another, a percent protection value was calculated for each analyte measured. […]

complement = test: protection against spontaneous complement activation in complement-containing samples during in vitro storage (summary of fragment EIAs); assay type: biochemical, human
Description: A method for screening compounds to determine the complement preventing effectiveness thereof is described in detail in the course of the following experimental description and discussion. The method essentially comprises treating complement-containing samples with various doses of the test compounds, storing the thus-treated sample at conventional storage temperature for a minimum of about 48 hours and determining the extent of complement activation which occurs during the storage period by performing assays on the sample for various complement activation products. The results are compared with determination of the level of the same activation products at the beginning of the storage period, i.e., a non-incubated control sample. A non-treated control, comprising an identical sample diluted with phosphate buffered saline (PBS) in a volume ratio identical to that of the sample and polyhydroxyl solution is similarly assayed.
(§2) The concentrations, expressed as μg analyte/mL, of a number of different activation products of spontaneous complement activation were measured in the course of these experiments. In an effort to normalize the data obtained from the various determinations so that the results from different assays could be directly compared to one another, a percent protection value was calculated for each analyte measured. The precent protection values were calculated by dividing the μg analyte/mL in the non-incubated, time-zero control sample by the μg analyte/mL in the experimental sample, multiplied by 100%. A percent protection value of 70 to 130% for any given analyte measured in an experimental sample was considered to indicate that the invention formulation tested was fully effective at providing protection against the occurrence of spontaneous complement activation. Ideally, the effective composition formulation would provide full protection against the occurrence of spontaneous complement activation in a complement-containing sample for all of the analytes measured. In fact, this was the case with several polyhydroxyl compounds when they were present in sufficiently high concentrations in a preferred embodiment of the invention.
A percent protection value range of 70 to 130% was used as a criterion to define that a given invention embodiment was able to provide full protection against spontaneous complement activation for the following reasons: The coefficient of variation for the EIA kits employed in these studies ranged from 10-30% when analyte levels were measured in the very low range of values found in freshly-drawn normal human plasma samples. Therefore, in order to ensure that a given result fell within the variability range of the assays employed, a percent protection value between 70 and 130% was considered to represent a fully protective effect.

C3 = target: T2, C3 (Homo sapiens, UniProt P01024); test: polyhydroxyl compounds in Buffer B mixed with EDTA-NHP: iC3b and C3d,g/iC3b fragment EIA; assay type: biochemical; settings: final concentration 2M, 22° C. for 48 hr
T2 construct: 250 μL of freshly drawn EDTA-normal human plasma (EDTA-NHP); from tissue; host or cells: normal human blood plasma (EDTA plasma; in A12 also citrate and heparin plasma)
T2 sequence (P01024 672-1663 limits assumed): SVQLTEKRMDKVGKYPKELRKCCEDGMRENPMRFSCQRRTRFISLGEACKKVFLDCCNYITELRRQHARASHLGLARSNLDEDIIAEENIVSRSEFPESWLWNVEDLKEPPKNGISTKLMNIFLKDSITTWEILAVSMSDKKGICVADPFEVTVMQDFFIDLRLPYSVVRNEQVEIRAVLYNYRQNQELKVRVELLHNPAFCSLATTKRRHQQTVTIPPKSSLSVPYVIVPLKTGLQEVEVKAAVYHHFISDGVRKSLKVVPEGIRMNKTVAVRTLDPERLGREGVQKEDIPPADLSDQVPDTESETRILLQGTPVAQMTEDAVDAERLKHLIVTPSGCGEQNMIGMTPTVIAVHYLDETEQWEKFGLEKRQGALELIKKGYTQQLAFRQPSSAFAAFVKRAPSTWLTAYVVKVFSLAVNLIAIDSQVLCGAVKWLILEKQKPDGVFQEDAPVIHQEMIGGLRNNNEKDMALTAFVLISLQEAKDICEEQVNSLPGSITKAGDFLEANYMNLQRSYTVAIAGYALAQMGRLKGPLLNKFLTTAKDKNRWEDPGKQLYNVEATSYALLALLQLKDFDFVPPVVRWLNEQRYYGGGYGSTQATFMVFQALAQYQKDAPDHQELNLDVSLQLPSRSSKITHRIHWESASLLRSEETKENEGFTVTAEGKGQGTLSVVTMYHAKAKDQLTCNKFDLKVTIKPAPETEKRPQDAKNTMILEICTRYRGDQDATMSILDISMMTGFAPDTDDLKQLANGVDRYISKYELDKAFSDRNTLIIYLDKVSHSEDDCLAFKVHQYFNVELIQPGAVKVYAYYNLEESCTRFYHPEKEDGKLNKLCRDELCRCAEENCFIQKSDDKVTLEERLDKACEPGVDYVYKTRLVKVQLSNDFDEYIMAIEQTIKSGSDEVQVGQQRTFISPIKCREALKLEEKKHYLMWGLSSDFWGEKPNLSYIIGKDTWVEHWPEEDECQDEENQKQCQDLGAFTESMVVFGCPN
T2 sequence (P01024 23-667 limits assumed): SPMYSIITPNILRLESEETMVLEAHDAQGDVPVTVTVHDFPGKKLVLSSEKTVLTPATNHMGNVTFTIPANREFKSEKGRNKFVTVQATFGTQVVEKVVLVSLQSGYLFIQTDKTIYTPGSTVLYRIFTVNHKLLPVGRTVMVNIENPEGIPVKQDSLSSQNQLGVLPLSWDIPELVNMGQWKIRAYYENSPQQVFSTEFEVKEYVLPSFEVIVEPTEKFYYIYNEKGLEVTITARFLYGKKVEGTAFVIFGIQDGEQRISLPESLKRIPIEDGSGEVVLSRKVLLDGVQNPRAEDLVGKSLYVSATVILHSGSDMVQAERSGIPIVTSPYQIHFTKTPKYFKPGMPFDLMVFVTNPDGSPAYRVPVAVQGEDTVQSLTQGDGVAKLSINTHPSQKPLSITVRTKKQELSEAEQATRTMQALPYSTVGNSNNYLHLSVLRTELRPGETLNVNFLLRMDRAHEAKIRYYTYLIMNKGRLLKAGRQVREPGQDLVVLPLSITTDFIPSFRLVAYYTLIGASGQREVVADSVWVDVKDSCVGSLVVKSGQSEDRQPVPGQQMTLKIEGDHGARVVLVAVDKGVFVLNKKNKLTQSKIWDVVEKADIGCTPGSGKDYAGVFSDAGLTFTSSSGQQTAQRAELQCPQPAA
Description: as §1, with “control). The EDTA-NHP samples mixed with each polyhydroxyl compound dissolved in Buffer B and the corresponding untreated controls were incubated at 22° C. for 48 hr, stored at -70° C. and subsequently assayed for C4d, iC3b, C3d,g/iC3b and Bb complement fragment levels as well as for circulating immune complex levels using the Raji Cell Replacement EIA.” for “control).”
as §2
A plasma dilution of 1:50 and a serum dilution of 1:100 were used in the iC3b fragment EIA tests. The immunochemical reaction specificity of MoAb 013III-1.1.6.1 has been published previously in abstract form, W. P. Kolb, et al., Fed. Proc. 44:990 (1985).
A plasma dilution of 1:250 and a serum dilution of 1:500 were used in the C3d,g/iC3b EIA tests. […] 135:2015-2019 (1985); Y. Kanayama, et al., J. Immunol. Meth. 88:33-36 (1986). The immunochemical reaction specificity of the Cytotech MoAb 013III-31.4.3.2.2has been published previously in abstract form, W. P. Kolb, et al., FASEB Journal 2:A1834 (1988).

T1 sequence (P00751 26-764): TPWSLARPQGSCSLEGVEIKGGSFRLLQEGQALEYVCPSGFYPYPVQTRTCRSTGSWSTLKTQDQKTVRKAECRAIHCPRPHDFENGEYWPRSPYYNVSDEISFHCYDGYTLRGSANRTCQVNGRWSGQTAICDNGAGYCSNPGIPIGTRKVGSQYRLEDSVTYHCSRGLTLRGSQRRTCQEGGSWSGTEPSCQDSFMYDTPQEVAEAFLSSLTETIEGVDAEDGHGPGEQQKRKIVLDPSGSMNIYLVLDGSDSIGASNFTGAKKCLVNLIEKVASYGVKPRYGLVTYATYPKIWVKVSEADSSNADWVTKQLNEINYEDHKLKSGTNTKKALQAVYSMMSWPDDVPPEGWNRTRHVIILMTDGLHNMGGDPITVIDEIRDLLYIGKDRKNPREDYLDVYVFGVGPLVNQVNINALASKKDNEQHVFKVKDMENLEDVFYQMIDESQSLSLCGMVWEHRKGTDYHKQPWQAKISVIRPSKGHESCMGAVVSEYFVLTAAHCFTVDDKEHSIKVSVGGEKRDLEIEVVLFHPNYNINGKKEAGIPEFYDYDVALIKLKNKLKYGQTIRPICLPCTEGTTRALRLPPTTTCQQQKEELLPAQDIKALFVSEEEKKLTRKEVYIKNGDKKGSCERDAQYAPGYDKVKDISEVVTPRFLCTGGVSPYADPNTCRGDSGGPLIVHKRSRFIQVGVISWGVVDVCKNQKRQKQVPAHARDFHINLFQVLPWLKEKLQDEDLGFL

OC[C@H]1O[C@@H](O)[C@H](O)[C@@H](O)[C@@H]1O [β-D-glucose]
prevention of spontaneous activation of Factor B (Bb fragment production) (Factor B): completely prevented
final concentration identified as particularly effective (complement; added to a complement-containing sample): ≥ 1.33 M
range of final concentrations found to provide protection against spontaneous complement activation (complement; complement-containing samples during in vitro storage): 0.5 to 4 M
acceptable range of final concentration at which spontaneous C activation will be prevented (complement; ingredient of the formulation): ≥ 1.3 M
prevention of spontaneous activation of C3 (C3): completely prevented
